Results: patent publication US20160041192A1 (Ameritox, Ltd., priority 2014, published 2016)
Values belong to the molecule of their own block, whether it stands above or below them.

Assays:
[1] = post oral dosing; cited from earlier work
[2] = human urine; major defined by ≧10% total drug exposure (Baselt 2014); cited from earlier work
[3] = human, in vivo
Protocol: (§1) Samples were subsequently vortexed and centrifuged prior to the injection of 5 μL on the QQQ. Each patient sample was analyzed twice to ensure accuracy.
(§2) Samples were subsequently vortexed and centrifuged prior to the injection of 5 μL on the QQQ.
as §2, §1, §2, §2, §2, §2, §2

[4] = Urine test of patients prescribed Seroquel after enzymatic hydrolysis with recombinant β-glucuronidase, QQQ; assay type: in vivo, human; settings: patient prescribed Seroquel, various doses
Protocol: 100 μL of each patient specimen was diluted with 400 μL of a “master mix” that included 1.6 μg/mL of quetiapine-D8 (internal standard), 0.06 M phosphate buffer, and at least 1450 U of a recombinant β-glucuronidase enzyme.

[5] = cited from earlier work
[6] = humans; cited from earlier work

Structure (SMILES): c1ccc2c(c1)N=C(N1CCNCC1)c1ccccc1S2 [N-Desalkyl Quetiapine, N-Desalkyl Quetiapine (Norquetiapine)]
share of the total radioactivity in plasma [1]: 10%
abundance in urine [2]: only small quantities

Urine concentration, Pre-Hydrolysis Results, Average [3]: 838 ng/mL
Urine concentration, Pre-Hydrolysis Results, Maximum Value [3]: 4999 ng/mL
Urine concentration, Pre-Hydrolysis Results, Median Value [3]: 287 ng/mL
Urine concentration, Pre-Hydrolysis Results, Minimum Value [3]: 17 ng/mL
Urine concentration, Pre-Hydrolysis Results, Subject HR [3]: 4574 ng/mL
Urine concentration, Pre-Hydrolysis Results, Subject eight [3]: 120 ng/mL
Urine concentration, Pre-Hydrolysis Results, Subject eighteen [3]: 755 ng/mL
Urine concentration, Pre-Hydrolysis Results, Subject eleven [3]: 17 ng/mL
Urine concentration, Pre-Hydrolysis Results, Subject fifteen [3]: 1118 ng/mL
Urine concentration, Pre-Hydrolysis Results, Subject five [3]: 77 ng/mL
Urine concentration, Pre-Hydrolysis Results, Subject four [3]: 187 ng/mL
Urine concentration, Pre-Hydrolysis Results, Subject fourteen [3]: 917 ng/mL
Urine concentration, Pre-Hydrolysis Results, Subject one [3]: 269 ng/mL
Urine concentration, Pre-Hydrolysis Results, Subject seven [3]: 873 ng/mL
Urine concentration, Pre-Hydrolysis Results, Subject seventeen [3]: 315 ng/mL
Urine concentration, Pre-Hydrolysis Results, Subject six [3]: 77 ng/mL
Urine concentration, Pre-Hydrolysis Results, Subject sixteen [3]: 97 ng/mL
Urine concentration, Pre-Hydrolysis Results, Subject thirteen [3]: 1137 ng/mL
Urine concentration, Pre-Hydrolysis Results, Subject three [3]: 304 ng/mL
Urine concentration, Pre-Hydrolysis Results, Subject twelve [3]: 361 ng/mL
Urine concentration, Pre-Hydrolysis Results, Subject twenty [3]: 208 ng/mL
Urine concentration, Pre-Hydrolysis Results, Subject twenty-one [3]: 137 ng/mL
Urine concentration, Pre-Hydrolysis Results, Subject twenty-two [3]: 222 ng/mL
Urine concentration, Pre-Hydrolysis Results, Subject two [3]: 4999 ng/mL
Urine concentration, Post-Hydrolysis Results, Subject T [4]: 86 ng/mL
Urine concentration, Post-Hydrolysis Results, Subject eleven [4]: 4059 ng/mL
Urine concentration, Post-Hydrolysis Results, Subject fifteen [4]: >5000 ng/mL
Urine concentration, Post-Hydrolysis Results, Subject four [4]: 2928 ng/mL
Urine concentration, Post-Hydrolysis Results, Subject nine [4]: 1494 ng/mL
Urine concentration, Post-Hydrolysis Results, Subject nineteen [4]: 29 ng/mL
Urine concentration, Post-Hydrolysis Results, Subject seventeen [4]: >5000 ng/mL
Urine concentration, Post-Hydrolysis Results, Subject sixteen [4]: 3019 ng/mL
Urine concentration, Post-Hydrolysis Results, Subject twenty [4]: >5000 ng/mL
Urine concentration, Post-Hydrolysis Results, Subject twenty-five [4]: 2579 ng/mL
Urine concentration, Post-Hydrolysis Results, Subject twenty-three [4]: 14 ng/mL
Structure (SMILES): OCCOCCN1CCN(C2=Nc3ccccc3Sc3ccccc32)CC1 [Quetiapine, 2-(2-(4-dibenzo[b,f][1,4]thiazepine-11-yl-1-piperazinyl)ethoxy) ethanol, reference compound]
Urine concentration, Post-Hydrolysis Results, Subject W [4]: ND (Indicates that the listed parent or metabolite compound was either not detected or detected below the established cut-off of 5 ng/mL indicating a negative result for that particular subject.)
share of the total radioactivity in plasma [1]: 24%
time to steady state serum concentrations ([5]; days of dosing): 2 days
increase of bioavailability ([5]; dosing with a light meal (~300 calories)): ~20%
mean elimination half-life ([5]; in vivo): 6 h
absorption ([5]; oral administration): rapidly absorbed
excreted in the feces [6]: 20%
recovered in the urine [6]: 73%

Structure (SMILES): O=C(O)COCCN1CCN(C2=Nc3ccccc3Sc3ccccc32)CC1 [Quetiapine Carboxylic Acid]
Urine concentration, Pre-Hydrolysis Results, Subject HR [3]: >5000 ng/mL
Urine concentration, Pre-Hydrolysis Results, Subject T [3]: 6 ng/mL
Urine concentration, Pre-Hydrolysis Results, Subject W [3]: 5 ng/mL
Urine concentration, Pre-Hydrolysis Results, Subject eight [3]: >5000 ng/mL
Urine concentration, Pre-Hydrolysis Results, Subject eighteen [3]: >5000 ng/mL
Urine concentration, Pre-Hydrolysis Results, Subject eleven [3]: >5000 ng/mL
Urine concentration, Pre-Hydrolysis Results, Subject fifteen [3]: >5000 ng/mL
Urine concentration, Pre-Hydrolysis Results, Subject five [3]: >5000 ng/mL
Urine concentration, Pre-Hydrolysis Results, Subject four [3]: >5000 ng/mL
Urine concentration, Pre-Hydrolysis Results, Subject fourteen [3]: >5000 ng/mL
Urine concentration, Pre-Hydrolysis Results, Subject nine [3]: >5000 ng/mL
Urine concentration, Pre-Hydrolysis Results, Subject nineteen [3]: 5 ng/mL
Urine concentration, Pre-Hydrolysis Results, Subject one [3]: >5000 ng/mL
Urine concentration, Pre-Hydrolysis Results, Subject seven [3]: >5000 ng/mL
Urine concentration, Pre-Hydrolysis Results, Subject seventeen [3]: >5000 ng/mL
Urine concentration, Pre-Hydrolysis Results, Subject sixteen [3]: >5000 ng/mL
Urine concentration, Pre-Hydrolysis Results, Subject thirteen [3]: >5000 ng/mL
Urine concentration, Pre-Hydrolysis Results, Subject three [3]: >5000 ng/mL
Urine concentration, Pre-Hydrolysis Results, Subject twelve [3]: >5000 ng/mL
Urine concentration, Pre-Hydrolysis Results, Subject twenty [3]: >5000 ng/mL
Urine concentration, Pre-Hydrolysis Results, Subject twenty-five [3]: >5000 ng/mL
Urine concentration, Pre-Hydrolysis Results, Subject twenty-four [3]: >5000 ng/mL
Urine concentration, Pre-Hydrolysis Results, Subject twenty-three [3]: 10 ng/mL
Urine concentration, Pre-Hydrolysis Results, Subject twenty-two [3]: >5000 ng/mL
abundance in urine [2]: major

Structure (SMILES): [O-][S+]1c2ccccc2N=C(N2CCN(CCOCCO)CC2)c2ccccc21 (centres unmarked) [Quetiapine Sulfoxide]
Urine concentration, Pre-Hydrolysis Results, Average [3]: 2318 ng/mL
Urine concentration, Pre-Hydrolysis Results, Maximum Value [3]: >5000 ng/mL
Urine concentration, Pre-Hydrolysis Results, Median Value [3]: 2143 ng/mL
Urine concentration, Pre-Hydrolysis Results, Subject HR [3]: >5000 ng/mL
Urine concentration, Pre-Hydrolysis Results, Subject eight [3]: >5000 ng/mL
Urine concentration, Pre-Hydrolysis Results, Subject eighteen [3]: >5000 ng/mL
Urine concentration, Pre-Hydrolysis Results, Subject eleven [3]: 2143 ng/mL
Urine concentration, Pre-Hydrolysis Results, Subject fifteen [3]: 740 ng/mL
Urine concentration, Pre-Hydrolysis Results, Subject five [3]: 4484 ng/mL
Urine concentration, Pre-Hydrolysis Results, Subject four [3]: >5000 ng/mL
Urine concentration, Pre-Hydrolysis Results, Subject fourteen [3]: >5000 ng/mL
Urine concentration, Pre-Hydrolysis Results, Subject nine [3]: >5000 ng/mL
Urine concentration, Pre-Hydrolysis Results, Subject one [3]: >5000 ng/mL
Urine concentration, Pre-Hydrolysis Results, Subject seven [3]: >5000 ng/mL
Urine concentration, Pre-Hydrolysis Results, Subject seventeen [3]: >5000 ng/mL
Urine concentration, Pre-Hydrolysis Results, Subject six [3]: 1252 ng/mL
Urine concentration, Pre-Hydrolysis Results, Subject sixteen [3]: 2971 ng/mL
Urine concentration, Pre-Hydrolysis Results, Subject thirteen [3]: >5000 ng/mL
Urine concentration, Pre-Hydrolysis Results, Subject three [3]: >5000 ng/mL
Urine concentration, Pre-Hydrolysis Results, Subject twelve [3]: >5000 ng/mL
Urine concentration, Pre-Hydrolysis Results, Subject twenty [3]: >5000 ng/mL
Urine concentration, Pre-Hydrolysis Results, Subject twenty-five [3]: >5000 ng/mL
Urine concentration, Pre-Hydrolysis Results, Subject twenty-four [3]: >5000 ng/mL
Urine concentration, Pre-Hydrolysis Results, Subject twenty-one [3]: >5000 ng/mL
Urine concentration, Pre-Hydrolysis Results, Subject twenty-two [3]: >5000 ng/mL
Urine concentration, Pre-Hydrolysis Results, Subject two [3]: >5000 ng/mL
Urine concentration, Post-Hydrolysis Results, Subject W [4]: ND (Indicates that the listed parent or metabolite compound was either not detected or detected below the established cut-off of 5 ng/mL indicating a negative result for that particular subject.)
abundance in urine [2]: major
